From BindingDB's records for patent US20230271937 (Nuevolution, 2023)

Target: T1, Isoform 2 of Nuclear receptor ROR-gamma (RORgT) (Homo sapiens, UniProt P51449)
T1 sequence (P51449 whole entry): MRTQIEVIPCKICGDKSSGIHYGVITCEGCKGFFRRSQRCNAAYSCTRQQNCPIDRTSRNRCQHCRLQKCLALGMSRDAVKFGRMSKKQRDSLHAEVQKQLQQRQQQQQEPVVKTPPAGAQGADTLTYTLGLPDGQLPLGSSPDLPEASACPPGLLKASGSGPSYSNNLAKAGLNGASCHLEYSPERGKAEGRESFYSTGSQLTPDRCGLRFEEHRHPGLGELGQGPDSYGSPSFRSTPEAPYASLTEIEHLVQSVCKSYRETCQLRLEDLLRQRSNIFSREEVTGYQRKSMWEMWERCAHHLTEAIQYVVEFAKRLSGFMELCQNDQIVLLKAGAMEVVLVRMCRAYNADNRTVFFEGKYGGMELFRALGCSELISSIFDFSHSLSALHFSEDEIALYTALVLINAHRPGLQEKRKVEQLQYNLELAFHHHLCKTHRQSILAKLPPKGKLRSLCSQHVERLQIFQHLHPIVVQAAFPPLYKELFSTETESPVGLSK
Assay: RORgamma Reporter Assay (Gal4)
Description: The HEK293 cell line is co-transfected transiently with two plasmids, one with the RORγ ligand-binding domain fused to galactose-responsive transcription factor (Gal4), and the other with the luciferase reporter gene and Gal binding sites (UAS). This construction allows to determine the RORγ activity in a cellular system through the measurement of luminescence. A suspension of RORγ reporter cells was dispensed into plates and cultured 2 h at 37° C. and 5% CO2. Media formulation consisted in DMEM/F-12 medium (Gibco) supplemented with 10% heat inactivated FBS (Sigma-Aldrich), non-essential aminoacids (Sigma-Aldrich), 2 mM Glutamax (Gibco) and 100 U/mL penicillin (Sigma-Aldrich). Dose-response curves with compounds were prepared in 100% DMSO and further diluted 100-fold in culture medium. […] The following formula was used: activity=100*[1−[x test compound/average vehicle] where the theoretical minimum reduction (0% reduction).

## CN(Cc1cccc(C#N)c1)c1ncnc(NC[C@H]2CCN(CC(N)=O)C[C@@H]2O)c1F [US20230271937, Example F2-08]
  EC50: 700 nM
